{"source": "patent US10709708B2", "about": "“Method of treating cancer with a combination of MER tyrosine kinase inhibitor and an epidermal growth factor receptor (EGFR) inhibitor” (Emory University, priority 2016, dated 2020)", "key": {"[1]": {"system": "mutant EGFR NSCLC cells & EGFR TKI-resistant derivatives", "experiment": "Viable cell counts of mutant EGFR NSCLC cells and EGFR TKI-resistant derivatives", "format": "cell-based", "conditions": "H1975, H1650 and AZD-9291 or erlotinib resistant derivatives", "method": "The indicated cell lines are shown in FIG. 15A (H1975), FIG. 15B (H1650), FIG. 15C (H1975^AZD-R), and FIG. 15D (H1650^AZD-R).\nThe indicated cell lines are shown in FIG. 16A (H1975), FIG. 16B (H1650), FIG. 16C (H4011), FIG. 16D (H1975^AZD-R), FIG. 16E (H1650^AZD-R), and FIG. 16F (H1650^ERL-R).\nNSCLC cells were cultured in the presence of the indicated compound(s) or an equivalent volume of vehicle (DMSO) only and the numbers of viable cells were counted at the indicated intervals using the Incucyte ZOOM live cell imaging system."}, "[2]": {"system": "mutant EGFR NSCLC cell lines", "experiment": "Cell counts of mutant EGFR NSCLC cell lines", "format": "cell-based", "conditions": "mutant EGFR NSCLC cell lines (H1650, H4006, PC9, HCC827)", "method": "(§1) NSCLC and normal bronchial epithelial (BEAS2B) cell lines were cultured with CO-1686 for 60 hours and confluency was determined (BEAS2B) or cells were counted (NSCLC cell lines) and normalized to vehicle-controls.\nFor treatment with CO-1686, the cell lines are shown in FIG. 9A (H1650), FIG. 9B (H4006), and FIG. 9C (PC9). For treatment with AZD-9291, the cell lines are shown in FIG. 9D (H1650) and FIG. 9E (HCC827). The indicated NSCLC cell lines were treated with CO-1686, AZD-9291, and/or MRX-2843 and cells were counted every 2 hours."}, "[3]": {"system": "A549 cells", "experiment": "Expansion of A549 cells in culture, Incucyte ZOOM live cell imaging", "format": "cell-based", "conditions": "for reduction of A549 cell number: agents alone or together at the same concentrations"}, "[4]": {"system": "mutant forms of EGFR including T790M", "conditions": "Walter et al. 2013; cited from earlier work"}, "[5]": {"system": "mutant EGFR NSCLC cell lines", "conditions": "EGFR mutation incl. T790M (H1975); 1 μM; as reported by Walter; cited from earlier work"}, "[6]": {"system": "wild-type EGFR NSCLC cell lines", "conditions": "as reported by Walter; cited from earlier work"}, "[7]": {"system": "A549 shMERTK cells", "experiment": "Confluence of A549 shMERTK cells, Incucyte ZOOM live cell imaging", "format": "cell-based", "conditions": "A549 shMERTK cell line, CO-1686 vs vehicle", "excerpt": "FIGS. 5A and 5B show inhibition of MERTK using shRNA sensitized A549 cells to CO-1686. FIG. 5A is an immunoblot showing decreased MERTK expression mediated by shRNA in A549 cells. […] FIG. 6A is an immunoblot showing decreased EGFR expression mediated by siRNA in A549 and […] cells."}, "[8]": {"system": "wild-type EGFR NSCLC cell lines", "experiment": "Cell counts of wild-type EGFR NSCLC cell lines after 60 hours", "format": "cell-based", "method": "as §1\nThe indicated NSCLC cell lines were treated with CO-1686 and/or MRX-2843 for 60 hours and cells were counted and normalized to vehicle controls."}}, "note": "Read-outs that look alike come from different tables or passages of the source.", "data": [{"compound": "Clc1ccc(C2(c3ccc(-c4cn[nH]c4)cc3)CCNCC2)cc1", "note": "[AT7867]", "values": [{"measurement": "anti-tumor activity in combination with MRX-2843", "setting": "[1]", "result": "synergistic anti-tumor activity"}]}, {"compound": "C=CC(=O)Nc1cc(Nc2nccc(-c3cn(C)c4ccccc34)n2)c(OC)cc1N(C)CCN(C)C", "note": "[AZD-9291, Osimertinib]", "values": [{"measurement": "interaction with MRX-2843", "setting": "[2]", "result": "synergize"}, {"measurement": "interaction with MRX-2843", "setting": "[3]; A549 cells, combined with MRX-2843", "result": "synergized"}]}, {"compound": "C=CC(=O)Nc1cccc(Nc2nc(Nc3ccc(N4CCN(C(C)=O)CC4)cc3OC)ncc2C(F)(F)F)c1", "note": "[CO-1686, Rociletinib]", "values": [{"measurement": "IC50", "setting": "[4]", "result": 21, "unit": "nM"}, {"measurement": "interaction with MRX-2843", "setting": "[2]", "result": "synergize"}, {"measurement": "sensitivity of cell lines to CO-1686", "setting": "[5]", "result": "clear sensitivity"}, {"measurement": "sensitivity of cell lines to CO-1686", "setting": "[6]", "result": "resistant"}, {"measurement": "reduction in cell number", "setting": "[7]", "result": "23.4±0.22", "unit": "%"}, {"measurement": "reduction of A549 cell number", "setting": "[3]; A549 cells", "result": "20.9±5.7", "unit": "%"}, {"measurement": "reduction in cell number", "setting": "[3]; wild-type A549 cells, CO-1686 vs vehicle, confluence", "result": "9.9±2.89", "unit": "%"}, {"measurement": "interaction with MRX-2843", "setting": "[8]; broad spectrum of wild-type EGFR NSCLC cell lines", "result": "synergizes"}, {"measurement": "sensitivity of cell lines to CO-1686", "setting": "[8]; wild-type EGFR cell lines compared to mutant EGFR lines", "result": "resistant"}]}, {"compound": "CN1CCN(Cc2ccc(-c3cn([C@H]4CC[C@H](O)CC4)c4nc(NCCC5CC5)ncc34)cc2)CC1", "note": "[MRX-2843]", "values": [{"measurement": "reduction of A549 cell number", "setting": "[3]; A549 cells", "result": "13.2±4.1", "unit": "%"}]}, {"compound": "Nc1nc(Nc2ccc3c(c2)CCC(N2CCCC2)CC3)nn1-c1cc2c(nn1)-c1ccccc1CCC2", "note": "(stereo not drawn) [R428]", "values": [{"measurement": "interaction with CO-1686", "setting": "[3]; A549 cells, combined with CO-1686", "result": "synergized"}]}, {"compound": "CN1CCC(CNc2ccc3ncc(-c4cccc(OC(F)(F)F)c4)n3n2)CC1", "note": "[SGI-1776]", "values": [{"measurement": "anti-tumor activity in combination with MRX-2843", "setting": "[1]", "result": "synergistic anti-tumor activity"}]}]}
